Assay: molar heat capacity at constant pressure
Conditions: 101.33 kPa, Vacuum adiabatic calorimetry

O=P([O-])([O-])[O-].[Cs+].[Mn+2] [cesium manganese(II) phosphate]
molar heat capacity at constant pressure [J/K/mol]
Conditions	Crystal 1	Crystal 2
87.44 K	–	66.08
89.1 K	–	66.98
90 K	–	67.48
92.52 K	–	68.77
95.06 K	–	70.08
97.6 K	–	71.4
99.96 K	–	72.65
100 K	–	72.69
102.68 K	–	74.12
105.79 K	–	75.84
108.49 K	–	77.53
110 K	–	78.18
110.3 K	–	78.39
111.89 K	–	79.04
112.89 K	–	79.62
113.69 K	–	80.09
115.29 K	–	81.13
116.83 K	–	82.04
118.24 K	–	82.7
119.21 K	–	83.23
120 K	–	83.73
120.39 K	–	84.89
123.17 K	–	91.87
124.56 K	–	100.77
125.56 K	–	106.26
126.99 K	–	117.73
127 K	86.55	86.55
128.36 K	113.16	–
128.73 K	107.76	–
130 K	87.8	–
130.58 K	93.29	–
131.88 K	89.3	–
132.69 K	88.3	–
133.47 K	88.38	–
134.22 K	88.8	–
135.31 K	89.3	–
136.46 K	89.88	–
137.83 K	90.46	–
138.61 K	90.79	–
139.44 K	91.13	–
140 K	91.54	–
140.05 K	91.46	–
141.84 K	92.21	–
143.65 K	92.87	–
146.58 K	93.95	–
149.52 K	95.03	–
150 K	95.37	–
152.45 K	96.2	–
155.39 K	97.36	–
158.13 K	98.36	–
160 K	99.03	–
160.88 K	99.36	–
163.62 K	100.44	–
166.37 K	101.44	–
168.91 K	102.35	–
170 K	102.68	–
171.45 K	103.27	–
174.38 K	104.26	–
177.32 K	105.26	–
180 K	106.18	–
180.25 K	106.26	–
183.19 K	107.26	–
186.12 K	108.17	–
189.06 K	109.17	–
190 K	109.58	–
191.79 K	110.08	–
194.53 K	111	–
197.27 K	111.91	–
199.58 K	112.58	–
200 K	112.74	–
201.38 K	113.08	–
203.92 K	113.83	–
206.38 K	114.57	–
209.38 K	115.65	–
210 K	115.82	–
212.32 K	116.57	–
215.39 K	117.48	–
218.18 K	118.31	–
219.88 K	118.73	–
220 K	118.81	–
221.58 K	119.23	–
224.09 K	119.98	–
226.59 K	120.73	–
229.5 K	121.56	–
230 K	121.56	–
232.41 K	122.39	–
235.32 K	123.3	–
238.23 K	124.22	–
240 K	124.3	–
